The source of these data is ChEMBL document CHEMBL1130559, “The synthesis and antitumor evaluation of unsymmetrical bis-imides” (Bioorg Med Chem Lett, 1997).

For series [1], the target named is Nucleic Acid. In words: In vitro DNA poly-dAdT binding by ethidium bromide displacement. Type of series: nucleic-acid assay.
Series [2] addresses Nucleic Acid. In words: In vitro DNA poly-dGdC binding by ethidium bromide displacement. Type of series: nucleic-acid assay.
In the next series the test system is L1210. In words: In vitro 50% inhibitory activity against L1210 murine leukemia. It is filed as functional, cell-based. As to conditions: Mus musculus.
In series [3] the test system is Mus musculus. In words: Compound was evaluated in vivo for the maximum tolerated dose (MTD) against MX-1 (breast) human solid tumors implanted in nude mice. It is filed as functional.
A short description of series [4]: Solubility in water. It is filed as physicochemical. As to conditions: read-out: S.
The test system of series [5] is Mus musculus. In words: Compound was evaluated in vivo for the percent tumor growth inhibition against human solid tumors implanted in nude mice MX-1 (breast), iv. It is filed as functional.
Series [6] relates to Mus musculus. In words: Compound was evaluated in vivo for the percent tumor growth inhibition against human solid tumors implanted in nude mice DLD-2 (colon), iv. It is filed as functional.
The test system of series [7] is Mus musculus. Put plainly: Compound was evaluated in vivo for the percent tumor growth inhibition against human solid tumors implanted in nude mice LX-1 (lung), iv. Type of series: functional.
Series [8] relates to Mus musculus. Put plainly: Compound was evaluated in vivo for the maximum tolerated dose against human solid tumors implanted in nude mice MX-1 (breast). It is filed as functional.
The subject of series [9] is Mus musculus. In words: Compound was evaluated in vivo for the maximum tolerated dose against human solid tumors implanted in nude miceDLD-2 (colon). It is filed as functional.
The subject of series [10] is Mus musculus. In words: Compound was evaluated in vivo for the maximum tolerated dose against human solid tumors implanted in nude miceLX-1 (lung). It is filed as functional.
Series [11] deals with Mus musculus. Put plainly: Compound was evaluated in vivo for the maximum tolerated dose against the following human solid tumors implanted in nude miceDLD-2 (colon). It is filed as functional.
For series [12], the system named is Mus musculus. Put plainly: Compound was evaluated in vivo for the maximum tolerated dose against the following human solid tumors implanted in nude miceLX-1 (lung). Type of series: functional.
Series [13] deals with Mus musculus. In words: Compound was evaluated in vivo for the maximum tolerated dose against the following human solid tumors implanted in nude miceMX-1 (breast). Type of series: functional.
Series [14] has as its system Mus musculus. In words: Compound was evaluated in vivo for the maximum tolerated dose against the following human solid tumors implanted in nude mice MX-1 (breast). It is filed as functional.

With `COc1ccc2cc3c4c(cccc4c2c1)C(=O)N([C@H](C)CNCCNC[C@@H](C)N1C(=O)c2cccc4cc([N+](=O)[O-])cc(c24)C1=O)C3=O`, the IC50 – broadly, the concentration that inhibits the measured activity by half – at Nucleic Acid [1] was determined as 800 nM; at Nucleic Acid [2], 130 nM; with L1210, 250 nM.
With `CS(=O)(=O)O.CS(=O)(=O)O.Cc1cnc2c(c1)cc1c3c(cc([N+](=O)[O-])cc32)C(=O)N([C@H](C)CNCCNC[C@@H](C)N2C(=O)c3cccc4cc([N+](=O)[O-])cc(c34)C2=O)C1=O`, the values for the IC50 on Nucleic Acid [1], at Nucleic Acid [2] and in the series with L1210 were 610 nM, 73 nM and 41 nM, respectively. Besides, the MTD (in general, the largest dose that counted as tolerated) with Mus musculus [3] was determined as 6 mg/kg.
`C[C@H](CNCCNC[C@@H](C)N1C(=O)c2cccc3c2c(cc2ccc(C(F)(F)F)cc23)C1=O)N1C(=O)c2cccc3cc([N+](=O)[O-])cc(c23)C1=O`: the IC50 on Nucleic Acid [1] came out at 2550 nM; on Nucleic Acid [2], 170 nM; with L1210 it was 450 nM.
With `C[C@H](CNCCNC[C@@H](C)N1C(=O)c2cccc3c2c(cc2cc(F)cnc23)C1=O)N1C(=O)c2cccc3cc([N+](=O)[O-])cc(c23)C1=O`, the IC50 worked out at 1420 nM on Nucleic Acid [1], 59 nM at Nucleic Acid [2] and 64 nM in the series with L1210.
As for `CS(=O)(=O)O.CS(=O)(=O)O.C[C@H](CNCCNC[C@@H](C)N1C(=O)c2ccc3c4c(ccc(c24)C1=O)CC3)N1C(=O)c2cccc3cc([N+](=O)[O-])cc(c23)C1=O`, the solubility in series [4] amounted to 29 mg/mL. In addition, the results for the IC50 at Nucleic Acid [1], on Nucleic Acid [2] and in the series on L1210 were 1570 nM, 110 nM and 75 nM, respectively. Moreover, the figures for the Inhibition in the series on Mus musculus [5], in the series on Mus musculus [6] and in the series with Mus musculus [7] were 97%, 98% and 95%, respectively. Besides, the MTD with Mus musculus [8] turned out to be 12.5 mg/kg; in the series on Mus musculus [9] it was 12.5 mg/kg; in the series on Mus musculus [10], 10 mg/kg.
With `C[C@H](CNCCNC[C@@H](C)N1C(=O)c2cccc3c2c(cc2ccc(F)cc23)C1=O)N1C(=O)c2cccc3cc([N+](=O)[O-])cc(c23)C1=O`, the IC50 at Nucleic Acid [1] was 1510 nM; at Nucleic Acid [2], 110 nM; in the series on L1210 it was 310 nM.
Regarding `C[C@H](CNCCNC[C@@H](C)N1C(=O)c2cc([N+](=O)[O-])cc3c2c(cc2ccncc23)C1=O)N1C(=O)c2cccc3cc([N+](=O)[O-])cc(c23)C1=O`, the IC50 turned out to be 880 nM at Nucleic Acid [1], 62 nM on Nucleic Acid [2] and 51 nM with L1210.
On to `C[C@H](CNCCNC[C@@H](C)N1C(=O)c2cccc3c2c(cc2ccccc23)C1=O)N1C(=O)c2cccc3cc([N+](=O)[O-])cc(c23)C1=O`, for which the IC50 worked out at 1020 nM at Nucleic Acid [1], 970 nM on Nucleic Acid [2] and 420 nM in the series with L1210.
Consider `CS(=O)(=O)O.CS(=O)(=O)O.C[C@H](CNCCNC[C@@H](C)N1C(=O)c2cccc3c2c(cc2ccncc23)C1=O)N1C(=O)c2cccc3cc([N+](=O)[O-])cc(c23)C1=O`, for which the solubility in series [4] came out at 65 mg/mL. The values for the IC50 at Nucleic Acid [1], on Nucleic Acid [2] and in the series with L1210 were 1200 nM, 88 nM and 35 nM, respectively. The Inhibition – broadly, the drop in the measured response relative to a control, in per cent – with Mus musculus [6] is 99%; in the series with Mus musculus [7] it was 94%. Also, the MTD in the series on Mus musculus [11], in the series on Mus musculus [12] and in the series with Mus musculus [13] was 6 mg/kg each time.
In the case of `C[C@H](CNCCNC[C@@H](C)N1C(=O)c2cc([N+](=O)[O-])cc3c2c(cc2cccnc23)C1=O)N1C(=O)c2cccc3cc([N+](=O)[O-])cc(c23)C1=O`, the half-inhibitory concentration (IC50) on Nucleic Acid [1] was 1570 nM; at Nucleic Acid [2], 85 nM; in the series with L1210, 24 nM.
In the case of `CS(=O)(=O)O.CS(=O)(=O)O.C[C@H](CNCCNC[C@@H](C)N1C(=O)c2cccc3c2c(cc2cccnc23)C1=O)N1C(=O)c2cccc3cc([N+](=O)[O-])cc(c23)C1=O`, the solubility in series [4] was greater than 35.6 mg/mL. Besides, the IC50 on Nucleic Acid [1] came out at 1080 nM; on Nucleic Acid [2] it was 73 nM; in the series on L1210, 250 nM. In addition, in the series on Mus musculus [3], the MTD is 6.2 mg/kg.
On to `CS(=O)(=O)O.CS(=O)(=O)O.C[C@H](CNCCNC[C@@H](C)N1C(=O)c2cccc3cc([N+](=O)[O-])cc(c23)C1=O)N1C(=O)c2cccc3cc([N+](=O)[O-])cc(c23)C1=O` [BISNAFIDE DIMESYLATE], for which the solubility in series [4] came to 3.5 mg/mL. In addition, the figures for the half-maximal inhibitory concentration (IC50) at Nucleic Acid [1], on Nucleic Acid [2] and in the series with L1210 were 1000 nM, 40 nM and 34 nM, respectively. Further, the values for the Inhibition with Mus musculus [5], in the series with Mus musculus [6] and in the series on Mus musculus [7] were greater than 96%, 99% and 96%, respectively. For the same compound, the MTD with Mus musculus [14], in the series on Mus musculus [11] and with Mus musculus [12] was 10 mg/kg each time.
